One assay concerns TNF-alpha. The assay can be described thus: TNF-alpha expression in colon tissue (ELISA), TNBS colitis, first experiment. The note with it: Table 4 (group 1), TNBS-treated mice, 10 mg/kg orally, 3 days. It is filed as in vivo, ICR male mice. How it is done: (§1) Among the experimental groups, one group was set as a normal group, and for the experimental animals in other groups, colitis was induced with 2,4,6-trinitrobenzenesulfonic acid (TNBS). In detail, after lightly anesthetizing the experimental animals with ether, 0.1 ml of the solution prepared by mixing […] of 2,4,6-Trinitrobenzene sulfonic acid (NBS) solution with 50% ethanol was injected into the colon through the anus using a syringe having 1 ml volume and oval point, respectively; and then, the syringe was vertically picked up, and then, maintained for 30 seconds to induce the inflammation. Meanwhile, 0.1 ml of normal saline solution was orally administered to the normal group. Since then, from the next day, the sample dissolved in normal saline solution was orally administered in the volume that was decided in advance one time a day for 3 days. At the next day after completing the sample administration, the experimental animals were suffocated to death with carbon dioxide, the colon from appendix to the region just before the anus was removed from the colon region.
(§2) 250 μl of RIPA butter including protease inhibitor cocktail was added to 100 mg of the colon tissue of experimental animal, and then, the colon tissue was homogenized. Since then, the homogenized colon tissue was centrifuged under the conditions of 4° C. and 13000 rpm for 15 minutes to obtain supernatant. While the supernatant was stored at −80° C., the expression amounts of IL-1 beta, IL-6, and TNF-alpha were measured using a 96-well ELISA plate kits (Pierce Biotechology, Inc., Rockford, Ill., USA).

Another assay concerns IL-1 beta. The assay can be described thus: IL-1 beta expression in colon tissue (ELISA), TNBS colitis, first experiment. It is filed as in vivo, ICR male mice. Conditions: TNBS-treated mice, 10 mg/kg orally, 3 days. As for the experimental part: as §1, §2
Background: An ELISA detects its analyte on a solid surface through an enzyme-linked reagent.

The subject of the next assay is Myeloperoxidase (MPO). The assay can be described thus: MPO activity of colon tissue, TNBS acute colitis, third experiment. The note with it: Table 12; TNBS-treated mice, 10 mg/kg orally, 3 days. It is filed as in vivo, male mice (C57BL/6). How it is done: Meanwhile, 0.1 ml of normal saline solution was orally administered to the normal group. Since then, from the next day, the sample dissolved in normal saline solution was orally administered in the volume that was decided in advance one time a day for 3 days. At the next day after completing the sample administration, the experimental animals were suffocated to death with carbon dioxide, and the colon from appendix to the region just before the anus was removed from the colon region. At this time, as a medicine sample, the experiments using the butanol-soluble fraction of the Anemarrhena asphodeloides Bunge extract, Mangiferin, and a combined extract were separately performed at a distance of time, respectively, and the effects of the medicine samples on preventing or treating colitis were reasonably analyzed based on the group supplied with normal saline solution instead of a specific medicine in the model animals with acute colitis induced by TNBS for each of the experiments. […] Since then, the homogenized colon tissue was centrifuged under the conditions of 4° C. and 13000 rpm for 15 minutes, and then, the supernatant thereof was obtained. […] Since then, 100 μl of a stop solution was added to stop the reaction, and then, the absorbance was measured at 450 nm using an ELISA reader.

Assay [1] deals with model animal with acute colitis induced by TNBS. The assay can be described thus: Acute colitis induced by TNBS in mice, weight change and colon appearance (macroscopic score, colon length), third experiment. It is filed as in vivo, male mice (C57BL/6). Conditions: Table 12, TNBS-treated mice, 3 days. As for the experimental part:
All the mice were bred under the controlled environmental conditions of 50 ±10% of humidity and 20 to 22° C. of temperature, and the lighting was repeatedly on for 12 hours and off for 12 hours. A feed for a standard experiment (Samyang, Korea) was used as a feed, and water was freely taken. For all the experiments, one group was 6 mice. […] Meanwhile, 0.1 ml of normal saline solution was orally administered to the normal group. Since then, from the next day, the sample dissolved in normal saline solution was orally administered in the volume that was decided in advance one time a day for 3 days. At the next day after completing the sample administration, the experimental animals were suffocated to death with carbon dioxide, and the colon from appendix to the region just before the anus was removed from the colon region. At this time, as a medicine sample, the experiments using the butanol-soluble fraction of the Anemarrhena asphodeloides Bunge extract, Mangiferin, and a combined extract were separately performed at a distance of time, respectively, and the effects of the medicine samples on preventing or treating colitis were reasonably analyzed based on the group supplied with normal saline solution instead of a specific medicine in the model animals with acute colitis induced by TNBS for each of the experiments. The sample administration to the model animals with colitis induced by TNBS was stopped, and at the next day, the weights of the experimental animals were measured, and then, the measured weights were compared with the initial weights to calculate the change amounts of weights. The scores about the removed colons were estimated by observing the appearances and the lengths of the colons according to the following criteria (Hollenbach, and the like, the criteria about the level of colon in 2005) as listed in Table 11. At this time, as a positive control group, the group administered with Mesalazine (Sigma) was used. In addition, some of the content in the colon was collected in order to analyze the rumen microorganisms, and then, was stored in a freezer of −80° C. […]

SMILES strings stand for the structures.

In turn, `Nc1ccc(O)c(C(=O)O)c1` [mesalazine, Mesalazine] showed a TNF-alpha conc. in the assay with TNF-alpha of 26.1 ± 8.8 pg/mg. This compound had an IL-1 beta conc. in the assay on IL-1 beta (Table 4 (group 1)) of 19.8 ± 14.4 pg/mg. The same compound came in with an IL-1 beta conc. with IL-1 beta (Table 5 (group 2)) of 31.1 ± 2.9 pg/mg. The “MPO activity (Percentage to group supplied with normal saline solution after treating TNBS)” value in the assay with Myeloperoxidase (MPO) was 47.8%. In addition, in assay [1] (10 mg/kg orally), the “Colon length (Percentage to group supplied with normal saline solution after treating TNBS)” value worked out at 155% and the “Macroscopic score (Percentage to group supplied with normal saline solution after treating TNBS)” value was 61.1%. The “Body weight (Percentage to group supplied with normal saline solution after treating TNBS)” value in assay [1] (one time dosage amount 10 mg/kg orally) turned out to be 113.5%.

The values above are taken from patent US20170368089A1, “COMPOSITION FOR PREVENTING OR TREATING COLITIS” (UNIVERSITY-INDUSTRY COOPERATION GROUP OF KYUNG HEE …, priority 2012, published 2017).
